Structures are written as SMILES.

The assay relates to Corn leaf discs (variety Multitop). The assay can be described thus: Dark induced senescence of corn leaf. The note with it: Zea mays, foliar, 192 h; corn leaf discs in the dark, 23° C., 75% humidity, 8 days; 100 μM-0.0001 μM, 0.5% DMSO; image analysis; read-out: IC50 (concentration at which 50% senescence was achieved). It counts as in vivo. Here is the method: Corn plants of variety Multitop were grown in a greenhouse with relative 75% humidity and at 23-25° C. for 6 weeks. 1.4 cm diameter leaf discs were placed into 24-well plates containing test compounds in a concentration gradient (100 μM-0.0001 μM) at a final concentration of 0.5% DMSO. Each concentration was tested in 12 replicates. Plates were sealed with seal foil. The foil was pierced to provide gas exchange in each well. The plates were placed into the completely dark climatic chamber. Plates were incubated in the chamber with 75% humidity and at 23° C. for 8 days. On days 0, 5, 6, 7 and 8 photographs were taken of each plate, and image analysis conducted with a macro developed using the ImageJ software. The image analysis was used to determine the concentration at which 50% senescence was achieved (IC50), see Table 3. The lower the value, the higher senescence induction potency.
Consider `CCOC(=O)/C(=C/OC1C=C(C)C(=O)O1)n1ccc2ccccc21` (stereo not drawn) [Compound I-1-Z, ethyl (Z)-2-indol-1-yl-3-[(4-methyl-5-oxo-2H-furan-2-yl)oxy]prop-2-enoate], for which the IC50 is below 3000 nM.

As for `CCOC(=O)/C(=C/OC1C=C(C)C(=O)O1)n1ccc2cc(C(F)(F)F)ccc21` (stereo not drawn) [Compound I-2-Z, ethyl (Z)-3-[(4-methyl-5-oxo-2H-furan-2-yl)oxy]-2-[5-(trifluoromethyl)indol-1-yl]prop-2-enoate], the IC50 is below 3000 nM.

Take `CCOC(=O)/C(=C/OC1C=C(C)C(=O)O1)n1ccc2cc(F)ccc21` (stereo not drawn) [Compound I-3-Z, ethyl (Z)-2-(5-fluoroindol-1-yl)-3-[(4-methyl-5-oxo-2H-furan-2-yl)oxy]prop-2-enoate]: the IC50 is below 3000 nM.

`CCOC(=O)/C(=C/OC1C=C(C)C(=O)O1)n1ccc2cc(-c3ccccc3)ccc21` (stereo not drawn) [Compound I-5-Z, ethyl (Z)-3-[(4-methyl-5-oxo-2H-furan-2-yl)oxy]-2-(5-phenylindol-1-yl)prop-2-enoate]: the IC50 is below 3000 nM.

In the case of `CCOC(=O)/C(=C/OC1OC(=O)C(C)=C1C)n1ccc2ccccc21` (stereo not drawn) [Compound I-7-Z, ethyl (Z)-3-[(3,4-dimethyl-5-oxo-2H-furan-2-yl)oxy]-2-indol-1-yl-prop-2-enoate], the IC50 is below 3000 nM.

For `CCOC(=O)/C(=C/OC1OC(=O)C(C)=C1C)n1ccc2cc(C(F)(F)F)ccc21` (stereo not drawn) [Compound I-8-Z, ethyl (Z)-3-[(3,4-dimethyl-5-oxo-2H-furan-2-yl)oxy]-2-[5-(trifluoromethyl)indol-1-yl]prop-2-enoate], the IC50 was below 3000 nM.

Consider `CCOC(=O)/C(=C/OC1OC(=O)C(C)=C1C)n1ccc2cc(F)ccc21` (stereo not drawn) [Compound I-9-Z, ethyl (Z)-3-[(3,4-dimethyl-5-oxo-2H-furan-2-yl)oxy]-2-(5-fluoroindol-1-yl)prop-2-enoate], for which the IC50 is below 3000 nM.

Regarding `CCOC(=O)/C(=C/OC1OC(=O)C(C)=C1C)n1ccc2cc(-c3ccccc3)ccc21` (stereo not drawn) [Compound I-11-Z, ethyl (Z)-3-[(3,4-dimethyl-5-oxo-2H-furan-2-yl)oxy]-2-(5-phenylindol-1-yl)prop-2-enoate], the IC50 was below 3000 nM.

With `CCOC(=O)/C(=C/OC1C=C(C)C(=O)O1)n1cc(C#N)c2ccccc21` (stereo not drawn) [Compound I-25-Z, ethyl (Z)-2-(3-cyanoindol-1-yl)-3-[(4-methyl-5-oxo-2H-furan-2-yl)oxy]prop-2-enoate], the IC50 is below 3000 nM.

Regarding `CCOC(=O)/C(=C/OC1OC(=O)C(C)=C1C)n1cc(C#N)c2ccccc21` (stereo not drawn) [Compound I-26-Z, ethyl (Z)-2-(3-cyanoindol-1-yl)-3-[(3,4-dimethyl-5-oxo-2H-furan-2-yl)oxy]prop-2-enoate], the IC50 was below 3000 nM.

With `CCOC(=O)/C(=C/OC1C=C(C)C(=O)O1)n1cc(C)c2ccccc21` (stereo not drawn) [Compound I-27-Z, ethyl (Z)-2-(3-methylindol-1-yl)-3-[(4-methyl-5-oxo-2H-furan-2-yl)oxy]prop-2-enoate], the IC50 is below 3000 nM.

Take `CCOC(=O)/C(=C/OC1OC(=O)C(C)=C1C)n1cc(C)c2ccccc21` (stereo not drawn) [Compound I-28-Z, ethyl (Z)-3-[(3,4-dimethyl-5-oxo-2H-furan-2-yl)oxy]-2-(3-methylindol-1-yl)prop-2-enoate]: the IC50 is below 3000 nM.

Consider `CCOC(=O)/C(=C/OC1C=C(C)C(=O)O1)n1c(C)c(C)c2ccccc21` (stereo not drawn) [Compound I-29-Z, ethyl (Z)-2-(2,3-dimethylindol-1-yl)-3-[(4-methyl-5-oxo-2H-furan-2-yl)oxy]prop-2-enoate], for which the IC50 was below 3000 nM.

As for `CCOC(=O)/C(=C/OC1OC(=O)C(C)=C1C)n1c(C)c(C)c2ccccc21` (stereo not drawn) [Compound I-30-Z, ethyl (Z)-2-(2,3-dimethylindol-1-yl)-3-[(3,4-dimethyl-5-oxo-2H-furan-2-yl)oxy]prop-2-enoate], the IC50 was below 3000 nM.

Turning to `CCOC(=O)/C(=C/OC1C=C(C)C(=O)O1)n1nnc2ccccc21` (stereo not drawn) [Compound I-31-Z, ethyl (Z)-2-(benzotriazol-1-yl)-3-[(4-methyl-5-oxo-2H-furan-2-yl)oxy]prop-2-enoate], the IC50 was below 3000 nM.

These data come from patent US20230339916A1, “PLANT GROWTH REGULATOR COMPOUNDS” (SYNGENTA CROP PROTECTION AG, priority 2020, published 2023).
